Measurements: patent publication US20250003968A1, “ACTIVITY-BASED CELL SORTING” (MASSACHUSETTS INSTITUTE OF TECHNOLOGY, priority 2021, published 2025)
*1 amine or outer side, *2 acyl side, *3 side chain or, on linkers, in order; H or OH if unused. Where no end group is shown, it is not given here. [ ]: non-standard residue; d: D form. The star is where a group is joined. 5FAM = O=C1OC2(c3ccc(O)cc3Oc3cc(O)ccc32)c2ccc(C(=O)*)cc21; Suc = O=C(CCC(=O)[*:2])[*:1]; Cy3 = Cy3 fluorophore label; Cy5 = Cy5 fluorophore label; Ahx = NCCCCCC(=O)O

How the values were obtained:
[1] = tested on: tissue-resident proteases in Eml4-Alk lung tissue sections; assay: In situ zymography with AZPs on fresh-frozen lung tissue sections; format: biochemical, mouse; conditions: for effect of inhibitor on Z1 tissue labeling: Eml4-Alk lung sections, 1 mM marimastat, 400 μM AEBSF or inhibitor cocktail; for AZP labeling of Eml4-Alk lung tissue: individual AZPs on consecutive sections, 7 weeks after tumor induction
Experimental: Mice were euthanized by isoflurane overdose. Lungs were then filled with undiluted optimal-cutting-temperature (OCT) compound through catheterization of the trachea; the trachea was subsequently clamped; and lungs were extracted. Individual lobes were dissected and then immediately embedded and frozen in optimal-cutting-temperature (OCT) compound (Sakura).
Cryosectioning was performed at the Koch Institute Histology Core. Prior to staining, slides were air dried, fixed in ice-cold acetone for 10 minutes, and then air dried. After hydration in PBS (3×5 minutes), tissue sections were blocked in protease assay buffer (50 mM Tris, 300 mM NaCl, 10 mM CaCl2), 2 mM ZnCl2, 0.02% (v/v) Brij-35, 1% (w/v) BSA, pH 7.5) for 30 minutes at room temperature. Blocking buffer was aspirated, and solution containing fluorescently labeled AZPs (1 μM each AZP) and a free poly-arginine control (polyR, 0.1 μM) diluted in the protease assay buffer was applied. Slides were incubated in a humidified chamber at 37° C. for 4 hours. For inhibited controls, 400 μM AEBSF (Sigma Aldrich), 1 mM marimastat (Sigma Aldrich), or protease inhibitor cocktail (P8340, Sigma Aldrich) spiked with AEBSF and marimastat was added to the buffer at both the blocking and cleavage assay steps. For uninhibited conditions, dimethyl sulfoxide (DMSO) was added to the assay buffer to a final concentration of 3% (v/v). For co-staining experiments, primary antibodies (E-cadherin, AF748, R&D Systems, 4 μg/mL; vimentin, ab92547, Abcam, 0.5 μg/mL; CD31, AF3628, R&D Systems, 10 μg/mL; desmin, ab227651, Abcam, 1.32 μg/mL) were included in the AZP solution. Following AZP incubation, slides were washed in PBS (3×5 minutes), stained with Hoechst (5 μg/mL, Invitrogen) and the appropriate secondary antibody if relevant (Invitrogen, 1:500), washed in PBS (3×5 minutes), and mounted with ProLong™ Diamond Antifade Mountant (Invitrogen). Slides were scanned on a Pannoramic 250 Flash III whole slide scanner (3DHistech).
The Z1 AZP (10 μmol/L) was incubated with recombinant fibroblast activation protein (FAP) in FAP assay buffer (50 mM Tris, 1 M NaCl, pH 7.5) overnight at 37° C. to run the cleavage reaction to completion. After precleavage with recombinant FAP, the AZP solution was diluted to a final peptide concentration of 0.1 μM in protease assay buffer. Cognate intact Z1 AZP (1 μmol/L) and precleaved Z1 AZP, each with a free polyR control (0.1 μM), were applied to fresh-frozen Eml4-Alk lung tissue sections (slide preparation described above) and incubated at 37° C. for 4 hours. After AZP incubation, slides were washed, stained with Hoechst, mounted, and scanned.
AZP and immunofluorescence staining was quantified in QuPath™ 0.2.3[53] and in ImageJ™ (NIH, v1.53). To perform cell-by-cell analysis, cell segmentation was performed using automated cell detection on the DAPI (nuclear) channel. For quantification of activity inhibition, AZP staining was calculated as a fold change of the mean nuclear AZP signal over the mean nuclear polyR signal. All nuclei within an individual tumor were averaged across that given tumor. Nuclei with a polyR intensity of less than 3 were excluded from analysis. For quantification of AZP intensity based on cell morphology and marker expression, cells were annotated as “vimentin-positive, spindle” if they were spindle-shaped and expressed vimentin; “E-cadherin-positive, cuboidal” if they were cuboidal-shaped and expressed E-cadherin; “vimentin-positive, round” if they were rounded and expressed vimentin. A random forest classifier was trained on all annotated cells (at least 20 cells per class) using multiple cellular features, including nuclear area and eccentricity, and mean cellular fluorescence intensity across all channels. The trained classifier was then applied to all cells across all tumors in the tissue section, and mean cellular fluorescence intensity was quantified.

[2] = tested on: serine proteases of mouse colon tissue sections; assay: AZP staining of frozen mouse colon sections; format: biochemical
From the text: We validated the AZP principle on colon tissue, whose epithelial cells secrete serine proteases including urokinase plasminogen activator (uPA). We therefore synthesized a Cy5-labeled AZP, termed PZ2 (SEQ ID NO:176), containing a serine protease-cleavable linker. Because similar peptides had never been applied directly to frozen tissue sections, it was unknown whether AZPs would nonspecifically bind to the tissue, or whether proteolytic cleavage would be required for AZP binding. We therefore pre-cleaved PZ2 with a serine protease, mesotrypsin (PRSS3) and applied it to a frozen section of mouse colon for 30 minutes. As a binding control, we also applied intact, uncleaved PZ2 to a consecutive section of mouse colon.
Having verified that proteolytic cleavage induces AZP binding, we next sought to validate whether AZPs could enable localization of protease activity in situ (FIG. 19a). Specifically, it was unknown whether frozen tissue sections would maintain sufficient protease activity to induce probe cleavage or whether cleaved probes would bind at the site of cleavage rather than diffusing to a distant site. We applied PZ2 and a binding control (free polyR-Cy7) to fresh-frozen sections of mouse colon (FIG. 19b). […] These findings verified that protease activity in the tissue section was necessary and sufficient to activate AZPs. Strikingly, we found strong colocalization of PZ2 with E-cadherin, a specific marker of epithelial cells, providing evidence that cleaved AZPs bind at the site of cleavage, rather than diffusing to a distant site (FIG. 19d).

[3] = tested on: homogenates of prostates from Hi-Myc PCa mice; assay: Multiplexed bead-coupled substrate screen against prostate homogenates; format: biochemical, mouse; conditions: pre-treatment of Hi-Myc prostate homogenates
Experimental: We turned to the Hi-Myc genetically engineered mouse model of PCa, wherein c-Myc is overexpressed in the murine prostate, resulting in invasive PCa. We selected a panel of 18 peptides previously found by our group to be recognized by a diverse array of metallo- and serine proteases dysregulated in PCa^20 and appended each with a unique, mass-encoded reporter molecule. We coupled these barcoded substrates to magnetic beads via a non-cleavable poly(ethylene glycol) (PEG) linker and incubated the bead cocktail against homogenates of prostates from PCa mice and from age-matched healthy controls (FIG. 20a). Beads were pulled down via magnetic separation, and liberated reporter molecules in the supernatant were measured by mass spectrometry, enabling quantification of substrate cleavage. Unsupervised hierarchical clustering of the cleavage data yielded two distinct clusters corresponding to prostates from PCa mice and prostates from healthy mice (FIG. 20b).

[4] = tested on: pulmonary protease activity; assay: In vivo activity-based nanosensors, urinary reporters by LC-MS/MS; parameters: species or system mouse; conditions: within 3 days of treatment initiation; 20 mg/kg daily oral gavage
Experimental: The urinary reporter glutamate-fibrinopeptide B (Glu-Fib) was mass barcoded for detection by mass spectrometry. Nanosensors were dosed (50 μL total volume, 20 μM each nanosensor) in mannitol buffer (0.28 M mannitol, 5 mM sodium phosphate monobasic, 15 mM sodium phosphate dibasic, pH 7.0-7.5) by intratracheal intubation. Anesthesia was induced by isoflurane inhalation, and mice were monitored during recovery. For intratracheal instillation, a volume of 50 μL was administered by passive inhalation following intratracheal intubation with a 22G flexible plastic catheter (Exel). […]
LC-MS/MS was performed by Syneos Health using a Sciex™ 6500 triple quadrupole instrument. […] Samples were extracted by solid-phase extraction and analyzed by multiple reaction monitoring by LC-MSMS to quantify concentration of each Glu-Fib mass variant. Analyte quantities were normalized to a spiked-in internal standard and concentrations were calculated from a standard curve using peak area ratio (PAR) to the internal standard. […]
Analyses of urinary reporter data were conducted using the analytic pipelines of the protease activity analysis (PAA) package [52], a publicly available Python package designed to process and visualize enzymatic activity datasets. […] Ten independent train-test trials were run for each classification problem, and classification performance was evaluated with ROC statistics. […]

[5] = tested on: MMP activity in Hi-Myc prostate tissue sections; assay: AZP staining of fresh-frozen Hi-Myc prostate sections; format: biochemical, mouse
From the text: It was unknown whether AZPs could enable in situ localization of the cleavage of peptides discovered in a screen of bulk homogenates. We therefore synthesized a new AZP (PZ19: SEQ ID NO:186) and applied it to fresh-frozen sections of prostates from Hi-Myc mice (FIG. 21a). With the exception of the protease-cleavable linker and fluorophore, PZ19 was identical in design to the serine protease-responsive PZ2. […] PZ19 labeling was abrogated by the MMP inhibitor marimastat (FIG. 21b middle row), though the free polyR control was unchanged.
It was unknown whether AZPs could be used in conjunction with antibodies to enable dual zymography and immunofluorescence labeling. […] Further, PZ19 labeling and co-localization with Ki67 was abrogated by addition of marimastat (FIG. 21d).

[6] = tested on: human PCa tissue microarray; assay: AZP staining of fresh-frozen human PCa tissue microarray (TMA); format: biochemical; conditions: for labeling of PCa tissue relative to normal prostates: AZP signal normalized to polyR, normal n=4, PCa n=24 cores; for labeling with vs without broad-spectrum cocktail of protease inhibitors: consecutive TMA sections
From the text: Two AZPs incorporating MMP-responsive substrates, PZ16 (SEQ ID NO:184) and PZ19, and two AZPs incorporating serine protease-responsive substrates, Z2 (SEQ ID NO:172) and PZ11 (SEQ ID NO:180), were selected for evaluation. We applied these probes, along with a free polyR control, to a frozen human PCa TMA that contained biopsies from normal prostates and PCa tumors across a range of Gleason scores.
To determine whether AZP binding was dependent on proteolysis, for each probe a consecutive TMA section was treated with a broad-spectrum cocktail of protease inhibitors.
We then investigated whether AZPs preferentially labeled PCa tissue relative to normal prostates. […] AZP activation and tissue staining across the TMA was quantitatively assessed by normalizing AZP signal intensity to polyR signal to account for differing binding propensities within a single core and across individual specimens. […] We further assessed the classification accuracy of these two in situ probes using receiver operating characteristic (ROC) curves.

[7] = tested on: T1, PZ2, Cy5-labeled AZP containing a serine protease-cleavable linker
T1 sequence: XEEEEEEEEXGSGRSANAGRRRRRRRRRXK

[8] = tested on: T2, quenched probe Q1, incorporating the substrate S1
T2 sequence: GGPQGIWGQC

Cl.NCCc1ccc(S(=O)(=O)F)cc1 [AEBSF, 4-(2-aminoethyl)benzenesulfonyl fluoride hydrochloride, reference compound]
effect of inhibitor on Z1 tissue labeling [1]: completely abrogated Z1 tissue labeling to the level of broad-spectrum inhibition
effect of inhibitor on PZ2 staining ([2]; four-hour incubation, mouse colon): abrogated
effect of inhibitor on cleavage of PM19 [3]: minimally affected cleavage

CCc1cc2c(cc1N1CCC(N3CCOCC3)CC1)C(C)(C)c1[nH]c3cc(C#N)ccc3c1C2=O [alectinib]
reporters exhibiting differential enrichment in the urine of vehicle- versus alectinib-treated mice [4]: 12 of 14

CNC(=O)[C@@H](NC(=O)[C@H](CC(C)C)[C@H](O)C(=O)NO)C(C)(C)C [marimastat, reference compound]
effect of inhibitor on Z1 tissue labeling [1]: did reduce Z1 signal
effect of inhibitor on cleavage of PM19 [3]: fully inhibited cleavage of PM19
effect of inhibitor on PZ19 labeling ([5]; Hi-Myc prostate sections): abrogated

U-eeeeeeee-X-GGLVPRGSGG-rrrrrrrrr-X-K(Cy5) (Suc-[dE][dE][dE][dE][dE][dE][dE][dE][Ahx]GGLVPRGSGG[dR][dR][dR][dR][dR][dR][dR][dR][dR][Ahx]K(Cy5)) [Z2]
labeling of PCa tissue relative to normal prostates [6]: preferentially label PCa tissue
labeling with vs without broad-spectrum cocktail of protease inhibitors [6]: protease-dependent labeling

U-eeeeeeee-X-GPVPLSLVMG-rrrrrrrrr-X-K(5FAM) (Suc-[dE][dE][dE][dE][dE][dE][dE][dE][Ahx]GPVPLSLVMG[dR][dR][dR][dR][dR][dR][dR][dR][dR][Ahx]K(5FAM)) [PZ19]
probe labeling of Hi-Myc prostate sections ([5]; fresh-frozen sections): PZ19 labeling in histologically normal glands of the Hi-Myc prostate
PZ19 labeling of normal mouse prostate ([5]; histologically similar region of healthy prostate): reduced PZ19 labeling
labeling of PCa tissue relative to normal prostates [6]: no significant difference between PCa and normal cores
labeling with vs without broad-spectrum cocktail of protease inhibitors [6]: no difference between the uninhibited and inhibited conditions

U-eeeeeeee-X-GSGRSANAG-rrrrrrrrr-X-K(Cy5) (Suc-[dE][dE][dE][dE][dE][dE][dE][dE][Ahx]GSGRSANAG[dR][dR][dR][dR][dR][dR][dR][dR][dR][Ahx]K(Cy5)) [PZ2]
probe staining of fresh-frozen mouse colon sections ([2]; four-hour incubation): strong PZ2 staining
fluorescence of colon sections treated with intact probe ([2]; intact, 30 minutes): minimal fluorescence
fluorescence of colon sections treated with pre-cleaved probe ([2]; pre-cleaved with mesotrypsin (PRSS3), 30 minutes): notable fluorescent signal throughout

U-eeeeeeee-X-GsGrsanaG-rrrrrrrrr-X-K(Cy5) (Suc-[dE][dE][dE][dE][dE][dE][dE][dE][Ahx]G[dS]G[dR][dS][dA][dN][dA]G[dR][dR][dR][dR][dR][dR][dR][dR][dR][Ahx]K(Cy5)) [dPZ2, AZP with a non-cleavable d-stereoisomer linker]
probe staining of fresh-frozen mouse colon sections ([2]; four-hour incubation): no Cy5 fluorescence

UeeeeeeeeXGGLGPKGQTGGrrrrrrrrrX-k(Cy3) (Suc-[dE][dE][dE][dE][dE][dE][dE][dE][Ahx]GGLGPKGQTGG[dR][dR][dR][dR][dR][dR][dR][dR][dR][Ahx][dK](Cy3)) [Z7]
AZP labeling of Eml4-Alk lung tissue [1]: protease-mediated, tumor-specific labeling

UeeeeeeeeXGGPQGIWGQGrrrrrrrrrX-k(Cy5) (Suc-[dE][dE][dE][dE][dE][dE][dE][dE][Ahx]GGPQGIWGQG[dR][dR][dR][dR][dR][dR][dR][dR][dR][Ahx][dK](Cy5)) [Z1]
Z1 staining in CD31-high cells of Eml4-Alk sections relative to CD31-high healthy and CD31-low cells ([1]; Eml4-Alk and healthy lung sections): significantly increased
Z1 intensity in vimentin-positive spindle-like cells relative to E-cadherin-positive or vimentin-positive rounded cells ([1]; Eml4-Alk tumors): increased Z1 intensity
Z1 staining of Eml4-Alk tumors ([1]; Eml4-Alk tumors vs free polyR binding control): strong, spindle-like staining
Z1 staining of healthy lungs ([1]; healthy lung sections): undetectable
AZP labeling of Eml4-Alk lung tissue [1]: protease-mediated, tumor-specific labeling
tissue labeling pattern of intact Z1 ([1]; intact Z1 1 μmol/L, 37° C. 4 hours, Eml4-Alk tumors): maintained its spindle-like spatial pattern
tissue labeling pattern of FAP-precleaved Z1 ([1]; precleaved with recombinant FAP, 0.1 μM, Eml4-Alk tumors): diffuse, uniform labeling that mirrored that of a free polyR

mesotrypsin (PRSS3)
in vitro pre-cleavage of the probe, read out by tissue fluorescence [7]: We therefore pre-cleaved PZ2 with a serine protease, mesotrypsin (PRSS3)

recombinant fibroblast activation protein (FAP)
fluorescence activation monitored over time (cleavage of quenched probe) [8]: Fibroblast activation protein (FAP) cleaves S1 in vitro
